Results on 6 molecules are retold here after PubChem BioAssay (NCI).

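Compound exposure: 48 hours, 5 concentrations, 96-well plates. Abbreviation: GI50, concentration required for 50% inhibition of growth. TGI denotes the concentration required for complete inhibition of growth.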 A value given as a limit tells only on which side of the number the result lay.

Among the test systems are CAKI-1 renal; HT29 colon; HCC-2998 colon; T-47D breast; HS 578T breast; PC-3 prostate; SK-OV-3 ovarian; HCT-116 colon; OVCAR-8 ovarian; MDA-MB-435.
Common to all, as to assay: NCI tumour cell line growth inhibition, 48 h

With `O=c1[nH]c(-c2ccc(Cl)c(Cl)c2)cn1-c1ccc(Cl)cc1`, the GI50 is 25.4 µM with CAKI-1 renal; 41.8 µM in the experiment on HT29 colon; 25.2 µM in the experiment with HCC-2998 colon; 25.5 µM with T-47D breast; 17.2 µM in the experiment with HS 578T breast; 66.9 µM in the experiment on PC-3 prostate. For the same molecule, the GI50 with SK-OV-3 ovarian is 19.9 µM; in the experiment with HCT-116 colon it was 15.8 µM; in the experiment on OVCAR-8 ovarian it was 34.7 µM; with MDA-MB-435, 60 µM. Besides, the TGI in the experiment with CAKI-1 renal is 49 µM; with HT29 colon, above 100 µM; in the experiment on HCC-2998 colon, 87.9 µM; in the experiment on T-47D breast it was 84.5 µM; in the experiment on HS 578T breast it was 51.8 µM; with PC-3 prostate, above 100 µM. Further, the TGI is 41.7 µM in the experiment with SK-OV-3 ovarian, 34 µM in the experiment on HCT-116 colon, above 100 µM in the experiment with OVCAR-8 ovarian and above 100 µM with MDA-MB-435.

As for `COc1ccc(OC)c(N2CC(O)=C(c3nc4ccccc4s3)C2=N)c1`, the GI50 is 76.6 µM with CAKI-1 renal; 42.8 µM in the experiment with HT29 colon; 32.5 µM in the experiment on HCC-2998 colon; above 100 µM in the experiment with T-47D breast; 34.5 µM with HS 578T breast; 52.5 µM in the experiment with PC-3 prostate. The GI50 with SK-OV-3 ovarian was above 100 µM; in the experiment with HCT-116 colon, 57.5 µM; with OVCAR-8 ovarian, 98.7 µM; in the experiment with MDA-MB-435, 20.8 µM. In addition, the TGI in the experiment on CAKI-1 renal, in the experiment with HT29 colon, in the experiment with HCC-2998 colon, in the experiment with T-47D breast, in the experiment with HS 578T breast and with PC-3 prostate was above 100 µM each time. The TGI in the experiment with SK-OV-3 ovarian, in the experiment on HCT-116 colon, in the experiment on OVCAR-8 ovarian and in the experiment on MDA-MB-435 was above 100 µM throughout.

Take `COc1cc2c(cc1OC)[C@@H]1C(=O)c3ccc4c(c3O[C@@H]1CO2)C[C@H](C(C)C)O4`: the GI50 in the experiment on CAKI-1 renal was 4.41 µM; with HT29 colon, 15.4 µM; in the experiment on HCC-2998 colon, 4.09 µM; in the experiment with T-47D breast it was 0.175 µM; with HS 578T breast, 8.15 µM; in the experiment with PC-3 prostate, 1.98 µM. In addition, the GI50 with SK-OV-3 ovarian is 14.4 µM; in the experiment on HCT-116 colon, 0.0435 µM; in the experiment on OVCAR-8 ovarian, 3.96 µM; in the experiment on MDA-MB-435, 4.06 µM. The TGI in the experiment on CAKI-1 renal was above 47.4 µM; in the experiment on HT29 colon, above 58.6 µM; in the experiment on HCC-2998 colon, above 61.6 µM; in the experiment with T-47D breast, above 60.6 µM; in the experiment with HS 578T breast, above 46.6 µM; in the experiment with PC-3 prostate it was above 30.5 µM. For the same molecule, the TGI is above 81.8 µM in the experiment with SK-OV-3 ovarian, above 37.8 µM in the experiment with HCT-116 colon, above 69.9 µM with OVCAR-8 ovarian and above 36.7 µM in the experiment on MDA-MB-435.

Take `COc1ccc(C2c3ccc4ccccc4c3Oc3ncn(CCCn4ccnc4)c(=N)c32)cc1OC` (stereo not given): the GI50 in the experiment with CAKI-1 renal was 4.84 µM; in the experiment on HT29 colon it was 2.2 µM; in the experiment with HCC-2998 colon, 3.45 µM; with T-47D breast it was 2.39 µM; in the experiment with HS 578T breast it was 2.26 µM; with PC-3 prostate, 3.23 µM. For the same molecule, the GI50 was 5.8 µM with SK-OV-3 ovarian, 3.02 µM in the experiment with HCT-116 colon, 3.16 µM in the experiment on OVCAR-8 ovarian and 1.99 µM in the experiment on MDA-MB-435. Also, the TGI was found to be 17.8 µM in the experiment with CAKI-1 renal; 5.6 µM in the experiment on HT29 colon; 11.2 µM with HCC-2998 colon; 6.25 µM in the experiment on T-47D breast; 7.46 µM in the experiment on HS 578T breast; 12.9 µM in the experiment with PC-3 prostate. Besides, the TGI with SK-OV-3 ovarian was determined as 18.4 µM; in the experiment with HCT-116 colon, 11 µM; in the experiment on OVCAR-8 ovarian, 11.6 µM; with MDA-MB-435, 4.06 µM.

For `COc1ccc(C)c2sc(N(Cc3cccnc3)C(=O)c3ccc(C#N)cc3)nc12`, the GI50 in the experiment with CAKI-1 renal is 47.2 µM; in the experiment on HT29 colon, 28.5 µM; in the experiment on HCC-2998 colon, 46.6 µM; in the experiment with T-47D breast, 26.1 µM; in the experiment on HS 578T breast it was 50.2 µM; in the experiment on PC-3 prostate it was 30.2 µM. For the same molecule, the GI50 was above 100 µM in the experiment on SK-OV-3 ovarian, 29.2 µM in the experiment on HCT-116 colon, 48.1 µM in the experiment on OVCAR-8 ovarian and 35.9 µM in the experiment on MDA-MB-435. Besides, the TGI in the experiment on CAKI-1 renal, with HT29 colon, in the experiment with HCC-2998 colon, in the experiment with T-47D breast, with HS 578T breast and with PC-3 prostate was above 100 µM in each case. Further, the TGI with SK-OV-3 ovarian, in the experiment on HCT-116 colon, with OVCAR-8 ovarian and in the experiment with MDA-MB-435 was above 100 µM each time.

As for `CC(C)[C@@]12C[C@@H](OC(=O)C3CO3)[C@@](C)(O1)[C@@H]1CC[C@@H](C)[C@H]1[C@@H]2OC(=O)/C=C/c1ccccc1` (stereo not given in full), the GI50 was 13.1 µM with CAKI-1 renal; 33.6 µM in the experiment on HT29 colon; 18.7 µM with HCC-2998 colon; 18.8 µM with T-47D breast; 0.354 µM with HS 578T breast; 17.4 µM with PC-3 prostate. The GI50 in the experiment on SK-OV-3 ovarian is 18.6 µM; with HCT-116 colon, 23.8 µM; in the experiment with OVCAR-8 ovarian, 5.33 µM; with MDA-MB-435, 18.4 µM. For the same molecule, the TGI was 54.8 µM in the experiment on CAKI-1 renal; above 100 µM in the experiment with HT29 colon; 35.8 µM in the experiment on HCC-2998 colon; above 100 µM with T-47D breast; 3.11 µM in the experiment with HS 578T breast; 61 µM in the experiment on PC-3 prostate. Further, the TGI is 46.8 µM in the experiment on SK-OV-3 ovarian, above 100 µM in the experiment on HCT-116 colon, 60.3 µM in the experiment with OVCAR-8 ovarian and 38.3 µM with MDA-MB-435.
